The numbers were not newly measured in patent US9085793B2, “Ex vivo methods to identify circulating drug metabolites with drug interaction potential” (XPD Consulting, LLC, priority 2012, dated 2015), which cites them from elsewhere.

Broadly, the Ki is the dissociation constant of the complex between target and ligand, obtained from inhibition or displacement. One may read the IC50 as the concentration that inhibits the measured activity by half. By Km is commonly meant the substrate concentration at which the rate is half of its maximum.

Where two headings read alike, the source gives them in different places.

The subject of series [1] is CYP3A. As to conditions: CYP 3A; in vivo inhibitory potential of metabolite over that of parent drug.
Series [2] relates to T1, CYP3A.
T1 construct: rows headed: Ki Parent Drug (P); other: CYP 3A; parent drug; Ki Metabolite (M); metabolite; [I]/Ki Parent Drug (P); [I]/Ki Metabolite (M)
The note with it: CYP 3A; metabolite.

Series [3] addresses T2, CYP2D6 (Homo sapiens, UniProt P10635). The note with it: CYP 2D6; for IPM/IPP: in vivo inhibitory potential of metabolite over that of parent drug; for Ki: read-out: Ki Metabolite, metabolite.
In series [4] the target is T3, CYP2C9 (Homo sapiens, UniProt P11712).
T3 sequence (P11712 whole entry): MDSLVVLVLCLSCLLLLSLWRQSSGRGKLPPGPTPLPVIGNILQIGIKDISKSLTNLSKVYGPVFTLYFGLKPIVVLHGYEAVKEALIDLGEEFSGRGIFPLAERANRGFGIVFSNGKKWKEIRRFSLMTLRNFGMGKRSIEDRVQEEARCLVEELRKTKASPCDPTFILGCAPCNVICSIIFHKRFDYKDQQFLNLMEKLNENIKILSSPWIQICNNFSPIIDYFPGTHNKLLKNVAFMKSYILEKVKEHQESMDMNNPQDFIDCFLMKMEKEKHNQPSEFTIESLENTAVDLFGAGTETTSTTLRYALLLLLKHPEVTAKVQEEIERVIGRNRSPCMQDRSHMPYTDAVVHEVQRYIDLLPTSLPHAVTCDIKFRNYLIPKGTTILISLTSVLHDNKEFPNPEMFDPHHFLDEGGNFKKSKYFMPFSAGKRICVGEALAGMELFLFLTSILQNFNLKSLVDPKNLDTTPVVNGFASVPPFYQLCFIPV
The conditions of series [5]: in vivo.
The target in series [6] is T3, CYP2C9. The source holds these as a separate data set.
Another series addresses CYP3A4 (Homo sapiens, UniProt P08684). As to conditions: human hepatocytes.
The target of series [7] is T2, CYP2D6. As to conditions: human hepatocytes.
Series [8] has as its target T3, CYP2C9. The note with it: read-out: Ki Metabolite, CYP 2C9.
In series [9] the target is T2, CYP2D6. The note with it: human liver microsomes. (Microsomes from liver hold many membrane-bound enzymes, among them those of drug oxidation.)
The mark [10] stands for this setting: circulating plasma level (in vivo concentration) of metabolite.

Sequence of CYP3A4 (P08684 whole entry): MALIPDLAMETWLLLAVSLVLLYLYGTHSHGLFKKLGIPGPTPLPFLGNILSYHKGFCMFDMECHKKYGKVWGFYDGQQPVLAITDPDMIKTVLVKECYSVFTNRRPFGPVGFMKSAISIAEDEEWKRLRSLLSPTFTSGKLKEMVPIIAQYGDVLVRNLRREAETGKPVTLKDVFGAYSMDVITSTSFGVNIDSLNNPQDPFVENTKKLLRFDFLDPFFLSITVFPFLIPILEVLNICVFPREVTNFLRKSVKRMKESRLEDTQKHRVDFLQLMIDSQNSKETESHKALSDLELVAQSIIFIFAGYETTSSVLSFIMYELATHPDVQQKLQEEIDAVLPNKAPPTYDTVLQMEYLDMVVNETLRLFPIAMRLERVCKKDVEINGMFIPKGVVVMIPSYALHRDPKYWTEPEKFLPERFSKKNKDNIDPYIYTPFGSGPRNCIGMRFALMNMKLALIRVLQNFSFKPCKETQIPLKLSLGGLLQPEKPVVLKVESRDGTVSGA
T2 sequence (P10635 whole entry): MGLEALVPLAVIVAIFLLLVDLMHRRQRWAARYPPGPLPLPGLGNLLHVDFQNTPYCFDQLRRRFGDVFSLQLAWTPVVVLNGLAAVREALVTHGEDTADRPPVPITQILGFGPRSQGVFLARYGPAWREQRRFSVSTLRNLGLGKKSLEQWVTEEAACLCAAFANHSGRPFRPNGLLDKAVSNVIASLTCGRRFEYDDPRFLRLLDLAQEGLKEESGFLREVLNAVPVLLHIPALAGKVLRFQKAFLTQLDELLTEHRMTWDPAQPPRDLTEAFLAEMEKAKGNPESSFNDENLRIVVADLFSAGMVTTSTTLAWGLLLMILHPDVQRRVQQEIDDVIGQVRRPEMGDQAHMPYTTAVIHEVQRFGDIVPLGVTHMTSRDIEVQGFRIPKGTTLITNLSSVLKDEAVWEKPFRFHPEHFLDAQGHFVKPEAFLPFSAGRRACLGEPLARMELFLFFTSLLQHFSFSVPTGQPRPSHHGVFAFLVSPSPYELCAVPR

On to `CC(C)c1c(C(=O)Nc2ccccc2)c(-c2ccccc2)c(-c2ccc(F)cc2)n1CC[C@@H]1C[C@@H](O)CC(=O)O1` [Atorvastatin lactone], for which the IPM/IPP in the series on CYP3A [1] was 5.5. In addition, in the series on CYP3A [2], the Ki is 0.9 µM. For the same molecule, the “[I] Metabolite (M)” value under setting [10] was 3e-09 M.

In the case of `CCNCc1cc(Nc2ccnc3cc(Cl)ccc23)ccc1O` [Desethylamodiaquine], at CYP2D6 [3], the IPM/IPP is 5.1 and the inhibition constant Ki is 4.1 µM. The “[I] Metabolite (M)” value under setting [10] was 8.2e-07 M.

With `O=C(O)Cc1ccccc1Nc1c(Cl)cccc1Cl` [Diclofenac], at CYP2C9 [4], the “Increase in Km on adding plasma (in words, FIG. 6)” value is recorded as “relatively large increase in Km” and the “Increase in Km on addition of plasma” value is “more than 40 fold”.

As to `CC(NC(C)(C)C)C(O)c1cccc(Cl)c1` (centres unmarked) [Erythrobupropion], on CYP2D6 [3], the IPM/IPP is given as 15.3 and the Ki was 1.7 µM. The “[I] Metabolite (M)” value under setting [10] was 3.7e-07 M.

Consider `CNCCC(Oc1ccc(C(F)(F)F)cc1)c1ccccc1` (centres unmarked) [Fluoxetine], for which the Plasma half-life in series [5] was 4 to 6 days.

In the case of `C[C@H]1NC(C)(C)CO[C@]1(O)c1cccc(Cl)c1` [Hydroxybupropion], at CYP2D6 [3], the IPM/IPP is on record as 17.0 and the Ki was 13 µM. Moreover, under setting [10], the “[I] Metabolite (M)” value was 3.2e-06 M.

On to `Clc1ccc(COC(Cn2ccnc2)c2ccc(Cl)cc2Cl)c(Cl)c1` (centres unmarked) [Miconazole], for which the IC50 at CYP2C9 [6] is 2020 ± 370 nM; at CYP2C9 [6] (hepatocytes) it was 2120 ± 370 nM.

`Cc1ncc2n1-c1ccc(Cl)cc1C(c1ccccc1F)=NC2` [Midazolam]: on CYP3A4 (plasma versus medium), the “Increase in Km” value is on record as 5.7 fold. The Michaelis-Menten constant (Km) on CYP3A4 (read-out: Km Medium, cell culture medium (HMM)) is 8.11 ± 0.65 µM; on CYP3A4 (read-out: Km Plasma, human plasma) it was 45.8 ± 4.38 µM.

Regarding `CCCCc1oc2ccccc2c1C(=O)c1cc(I)c(OCCNCC)c(I)c1` [N-Desethylamiodarone], for the setting “in vivo”, the “[I] Metabolite (M)” value was 1.5e-06 M.

In the case of `CNCCCN1c2ccccc2CCc2ccc(Cl)cc21` [N-Desmethylclomipramine], on CYP2D6 [3], the IPM/IPP is listed as 4.2 and the Ki was 7.9 µM. In addition, the “[I] Metabolite (M)” value (in vivo) was 4.9e-07 M.

As to `CNCC(c1ccc(OC)cc1)C1(O)CCCCC1` (centres unmarked) [N-Desmethylvenlafaxine], the “[I] Metabolite (M)” value (in vivo) was 9.3e-07 M.

Regarding `NCCC(Oc1ccc(C(F)(F)F)cc1)c1ccccc1` (centres unmarked) [Norfluoxetine], the Ki at CYP2D6 [3] was 0.2 µM. For the same molecule, in [5], the Plasma half-life entry is listed as “about 16 days”.

For the molecule `Cc1nc2n(c(=O)c1CCN1CCC(c3noc4cc(F)ccc34)CC1)CCCC2O` (centres unmarked) [Paliperidone], the IPM/IPP on CYP2D6 [3] was 1.0; with CYP3A [1] it was 2.0. In addition, the inhibition constant Ki is 16 µM at CYP2D6 [3] and 80 µM with CYP3A [2]. Also, the “[I] Metabolite (M)” value under setting [10] is 4.6e-08 M.

With `OC(CCCN1CCC(O)(c2ccc(Cl)cc2)CC1)c1ccc(F)cc1` (centres unmarked) [Reduced haloperidol], on CYP2D6 [3], the IPM/IPP is given as 1.3 and the inhibition constant Ki was 0.24 µM. The “[I] Metabolite (M)” value under setting [10] was 8e-09 M.

Consider `CN[C@H]1CC[C@@H](c2ccc(Cl)c(Cl)c2)c2ccccc21` [Sertraline], for which the IC50 on CYP2D6 [7] (human plasma, read-out: IC50 Plasma) was 13.1 ± 3.49 µM; on CYP2D6 [7] (medium, read-out: IC50 Medium) it was 3.1 ± 0.34 µM.

As to `Nc1ccc(S(=O)(=O)Nc2ccnn2-c2ccccc2)cc1` [Sulfaphenazole], at CYP2C9 [6] (addition of plasma to human hepatocytes or human liver microsomes), the “IC50 increased on addition of plasma” value was “more than 10 fold”.

Take `O=C1C(CCSc2ccccc2)C(=O)N(c2ccccc2)N1c1ccccc1` [Sulfinpyrazone sulfide]: the Ki at CYP2C9 [8] is 27 µM.

Take `C[C@H](NC(C)(C)C)[C@@H](O)c1cccc(Cl)c1` [Threobupropion]: at CYP2D6 [3], the IPM/IPP was 24.8 and the Ki is 5.4 µM. Moreover, the “[I] Metabolite (M)” value under setting [10] was 1.9e-06 M.

In the case of `COc1ccc2c(c1)[C@]13CCCC[C@@H]1[C@H](C2)N(C)CC3` [dextromethorphan], at CYP2D6 [9], the “Increase in Km on adding plasma (in words, FIG. 6)” value is “relatively small increase in Km” and the “Increase in Km on addition of plasma” value is on record as “less than six”.
